According to patent US20260345543A1, “Bridged Bicyclic Compounds and their Derivatives as Antiepileptic Agents and Methods of Use Thereof” (Florida Atlantic University Board of Trustees, priority 2022, published 2026):

Legend:
[1] = tested on: unc-25 and unc-49 loss of function mutant C. elegans; conditions: unc-25 and unc-49 mutants; concentration not given; cited from earlier work
C. elegans (N2 worms) [2] = conditions: effect of PTZ application; concentration not given; cited from earlier work
C. elegans (N2 worms) [3] = assay: C. elegans electroshock seizure assay (recovery time; with or without PTZ); format: in vivo; conditions: 3 mM (3000 μM); with PTZ; control AED
Text: FIG. 2 is a graph showing recovery time (seconds) for N2 worms (vertical axis) in the presence of M9 or pentylenetetrazol (PTZ) (first two bars). In other experiments, PTZ is combined with either an RVM or sodium valproate.
FIG. 3 left is the structure of RVM-3, and FIG. 3 right is a graph showing recovery time (seconds) for N2 worms (vertical axis) in the presence of M9 or PTZ (first two bars). In other experiments, PTZ is combined with RVM-3 at varying concentrations or sodium valproate.
The structures of these RVMs are comprised of an all-carbon bridged bicyclic scaffold that is fully saturated, a motif that is without precedent in the AED literature. […] It is expected that a pharmacological intervention based on RVMs will provide relief from epileptic events at low dosages.
The C. elegans seizure assay includes placing L4 C. elegans into a small tube that is capped on both sides by copper wires. A shock of 47 V for three seconds is then administered. […] Recovery is recorded when the animals present with coordinated three sinusoidal movements, which is then characterized as normal swimming activity. […]
This C. elegans assay offers a new model for the evaluation of electroconvulsive seizures (FIG. 4). […] Recovery is recorded when the animals present with three sinusoidal movements, which is then characterized as normal swimming activity. […]

Compound	sensitivity to electroshock when mutants are treated with antiepileptic drugs [1]	seizure-like phenotypes seen in C. elegans (C. elegans (N2 worms) [2])	sensitivity to electroshock when mutants are additionally treated with PTZ [1]	restoration of recovery time (C. elegans (N2 worms) [3])
CC[C@@H](C(N)=O)N1CCCC1=O [Keppra, levetiracetam]	increased sensitivity is rescued	–	–	–
C1CCc2nnnn2CC1 [PTZ, Pentylenetetrazole]	–	enhances the seizure-like phenotypes	sensitivity to electroshock is increased	–
CCOC(=O)Nc1ccc(NCc2ccc(F)cc2)cc1N [Retigabine]	increased sensitivity is rescued	–	–	–
CCCC(CCC)C(=O)[O-].[Na+] [Sodium valproate, sodium valproate]	increased sensitivity is rescued	–	–	relatively modest restoration of recovery time
